Measured values: ChEMBL document CHEMBL5154803, “Spermine-Conjugated Short Proline-Rich Lipopeptides as Broad-Spectrum Intracellular Targeting Antibacterial Agents” (J Med Chem, 2022)
Values after ≈ are worked out from the molar mass of the structure shown. Active and inactive are the calls of the source. The rule behind the calls is not given here. Where a SMILES comes first, the peptide text is derived from it. The star is where a group is joined. Lauroyl = CCCCCCCCCCCC(=O)*; Decanoyl = CCCCCCCCCC(=O)*; Spermine = NCCCNCCCCNCCCN*

Columns and labels:
Staphylococcus aureus [1] = assay: Additive antibacterial activity against MDR-methicillin-resistant Staphylococcus aureus ATCC BAA-44 assessed as rifampicin MIC by checkerboard assay; format: functional
Staphylococcus aureus [2] = assay: Synergistic antibacterial activity against MDR-methicillin-resistant Staphylococcus aureus ATCC BAA-44 assessed as ampicillin MIC by checkerboard assay; format: functional
Staphylococcus aureus [3] = assay: Antibacterial activity against MDR-methicillin-resistant Staphylococcus aureus ATCC BAA-44 assessed as reduction in bacterial growth measured after 18 hrs by broth microdilution method; format: functional
[4] = tested on: Staphylococcus epidermidis; assay: Antibacterial activity against Staphylococcus epidermidis ATCC 12228 assessed as reduction in bacterial growth measured after 18 hrs by broth microdilution method; format: functional
[5] = biological target: Bacterial 70S ribosome (Bacteria) (UniProt P0A7V0+P60723+P0AG67+P0A7R5+P0A7R9+P0A7S3+P0A7S9+P0AG59+P0ADZ4+P0A7T3+P0AG63+P0A7T7+P0A7U3+P0A7U7+P68679+P0A7V3+P0A7V8+P0A7W1+P02358+P02359+P0A7W7+P0A7X3+P0A7J3+P0A7J7+P0AA10+P0ADY3+P02413+P0ADY7+P0AG44+P0C018+P0A7K6+P0A7L0+P0A7L3+P0AG48+P61175+P0ADZ0+P60624+P68919+P0A7L8+P0A7M2+P0A7M6+P60422+P0AG51+P0A7N1+P0A7M9+P0A7N4+P0A7N9+P0A7P5+P0A7Q1+Q2EEQ2+P0A7Q6+P60438+P62399+P0AG55+P0A7K2); assay: Inhibition of 70S ribosome-mediated protein synthesis in Escherichia coli at 1XMIC incubated for 1 hr by renilla luciferase based luminescence assay; format: subcellular
Staphylococcus aureus [6] = assay: Synergistic antibacterial activity against MDR-methicillin-resistant Staphylococcus aureus ATCC BAA-44 assessed as chloramphenicol MIC by checkerboard assay; format: functional
Staphylococcus aureus [7] = assay: Synergistic antibacterial activity against MDR-methicillin-resistant Staphylococcus aureus ATCC BAA-44 assessed as fold change in ampicillin MIC by checkerboard assay; format: functional
[8] = Acute toxicity in BALB/c mouse assessed as mouse survival at 10 mg/kg, ip measured for 7 days; format: organism-based; conditions: in vivo, time 7 day
Staphylococcus aureus [9] = assay: In vivo antibacterial activity against Staphylococcus aureus ATCC 25923 infected in BALB/c mouse model assessed as reduction of bacterial load in spleen at 5 mg/kg, ip administered as single dose measured after 24 hrs by colony counting based analysis (reference value: 6X10^3 CFU); format: functional
Escherichia coli [10] = assay: Bacteriostatic activity against Escherichia coli ATCC 25922 at 1XMIC incubated for 4 hrs followed by plating on MHII agar pate for 24 hrs; format: functional, organism-based; conditions: time 28.0 hrs
Escherichia coli [11] = assay: Bactericidal activity against Escherichia coli ATCC 25922 assessed as log reduction of bacterial growth at 5XMIC incubated for 2 hrs followed by plating on MHII agar pate for 24 hrs; format: functional; conditions: time 26 hrs
Cell membrane [12] = assay: Disruption of bacterial cell membrane in Escherichia coli ATCC 25922 assessed as proportion of bacteria with intact cell membrane at 5X MIC incubated for 1 hr by PI staining based flow cytometric analysis (reference value: 99.3%); format: subcellular
Cell membrane [13] = assay: Disruption of bacterial cell membrane in Escherichia coli ATCC 25922 assessed as proportion of bacteria with damaged cell membrane at 5X MIC incubated for 1 hr by PI staining based flow cytometric analysis (reference value: 0.7%); format: subcellular
Cell membrane [14] = assay: Disruption of bacterial cell membrane in Escherichia coli ATCC 25922 assessed as blebbing on the surface of the bacteria at 5XMIC by SEM analysis; format: subcellular
Staphylococcus aureus [15] = assay: Additive antibacterial activity against MDR-methicillin-resistant Staphylococcus aureus ATCC BAA-44 assessed as chloramphenicol MIC by checkerboard assay; format: functional
Staphylococcus aureus [16] = assay: Additive antibacterial activity against MDR-methicillin-resistant Staphylococcus aureus ATCC BAA-44 assessed as fold change in chloramphenicol MIC by checkerboard assay; format: functional
Staphylococcus aureus [17] = assay: Additive antibacterial activity against MDR-methicillin-resistant Staphylococcus aureus ATCC BAA-44 assessed as fractional inhibitory concentration index in presence of chloramphenicol by checkerboard assay; format: functional

CCCCCCCCCCCC(=O)N1CCC[C@H]1C(=O)N[C@@H](CCCNC(=N)N)C(=O)N1CCC[C@H]1C(=O)N[C@@H](CCCNC(=N)N)C(=O)N1CCC[C@H]1C(=O)N1CCC[C@H]1C(=O)N[C@@H](CCCNC(=N)N)C(=O)NCCCNCCCCNCCCN (Lauroyl-PRPRPPR-Spermine)
MIC (Staphylococcus aureus [1]): 0.625 µg/mL | MIC (Staphylococcus aureus [2]): 3.9 µg/mL | MIC (Staphylococcus aureus [3]): 1.5 µM (≈ 1.86 µg/mL) | MIC [4]: 1.5 µM (≈ 1.86 µg/mL) | inhibition [5]: Active | MIC (Staphylococcus aureus [6]): 250 µg/mL | fold change (FC) (Staphylococcus aureus [7]): 4 | survival at 168 h [8]: 100% | Activity (Staphylococcus aureus [9]): <4 10^2CFU | Activity (Escherichia coli [10]): Active | Activity (Escherichia coli [11]): >3 log10CFU/ml | Activity (Cell membrane [12]): 72.7% | Activity (Cell membrane [13]): 27.3% | Activity (Cell membrane [14]): Active

CCCCCCCCCC(=O)N1CCC[C@H]1C(=O)N[C@@H](CCCNC(=N)N)C(=O)N1CCC[C@H]1C(=O)N[C@@H](CCCNC(=N)N)C(=O)N1CCC[C@H]1C(=O)N1CCC[C@H]1C(=O)N[C@@H](CCCNC(=N)N)C(=O)NCCCNCCCCNCCCN (Decanoyl-PRPRPPR-Spermine)
MIC (Staphylococcus aureus [1]): 0.625 µg/mL | MIC (Staphylococcus aureus [2]): 7.81 µg/mL | MIC (Staphylococcus aureus [3]): 3.1 µM (≈ 3.76 µg/mL) | MIC [4]: 1.5 µM (≈ 1.82 µg/mL) | inhibition [5]: Active | MIC (Staphylococcus aureus [6]): 1000 µg/mL | MIC (Staphylococcus aureus [15]): 1000 µg/mL | fold change (FC) (Staphylococcus aureus [7]): 2 | survival at 168 h [8]: 100% | Activity (Staphylococcus aureus [9]): <4 10^2CFU | Activity (Escherichia coli [10]): Active | Activity (Escherichia coli [11]): >3 log10CFU/ml | Activity (Cell membrane [12]): 90.4% | Activity (Cell membrane [13]): 9.56% | fold change (FC) (Staphylococcus aureus [16]): 1 | fractional inhibitory concentration index (FICI) (Staphylococcus aureus [17]): 2
